Reference: the supplement of paper PMC10331698
± gives the standard deviation of the averaged measurements.

Columns and labels:
Assay in all cases: level (log10 ratio to DMSO vehicle control); higher = higher biomarker level / cell amount than vehicle control
Conditions in all cases: in DMSO
[1] = compound: FC(F)(F)C(F)(F)C(F)(F)C(F)(F)C(F)(F)C(F)(F)C(F)(F)C(F)(F)CCS [2-(Perfluorooctyl)ethanthiol]
Description: (§1)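 BioMAP Diversity Plus panel of 12 human primary cell co-culture systems (3C, 4H, LPS, SAg, BT, BF4T, BE3C, CASM3C, HDF3CGF, KF3CT, MyoF, Mphg). Compounds were added 1 h before stimulation and left for 24 h (MyoF 48 h; BT 72 h for soluble read-outs or 6 d for IgG). Biomarkers were read by ELISA, cytotoxicity by SRB, PBMC viability and proliferation by Alamar Blue. Each well value was divided by the mean of 8 DMSO control wells on the same plate and log10 transformed; duplicate blinded samples were tested at 4 concentrations.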

[2] = compound: FC(F)(F)C(F)(C(F)(F)F)C(F)(F)C(F)(F)CC1CO1 [3-(Perfluoro-3-methylbutyl)-1,2-propenoxide]
Description: as §1

Perfluorodecanoic acid = compound: O=C(O)C(F)(F)C(F)(F)C(F)(F)C(F)(F)C(F)(F)C(F)(F)C(F)(F)C(F)(F)C(F)(F)F [Perfluorodecanoic acid]
Description: as §1

[3] = compound: CCN(CCO)S(=O)(=O)C(F)(F)C(F)(F)C(F)(F)C(F)(F)C(F)(F)C(F)(F)C(F)(F)C(F)(F)F [N-Ethyl-N-(2-hydroxyethyl)perfluorooctanesulfonamide]
Description: as §1

Perfluorobutanoic acid = compound: O=C(O)C(F)(F)C(F)(F)C(F)(F)F [Perfluorobutanoic acid]
Description: as §1

[4] = compound: OCCC(F)(F)C(F)(F)C(F)(F)C(F)(F)C(F)(F)C(F)(F)F [6:2 Fluorotelomer alcohol]
Description: as §1

[5] = compound: COC(=O)CCC(F)(F)C(F)(F)C(F)(F)C(F)(F)F [Methyl 2H,2H,3H,3H-perfluoroheptanoate]
Description: as §1

[6] = compound: FC(F)(F)C(F)(F)C(F)(F)C(F)(F)C(F)(F)CCI [1-Iodo-1H,1H,2H,2H-perfluoroheptane]
Description: as §1

| Test System | level (log10) ([1]; 6700 nM) | level (log10) ([1]; 20000 nM) | level (log10) ([2]; 6700 nM) | level (log10) ([2]; 20000 nM) | level (log10) (Perfluorodecanoic acid; 6700 nM) | level (log10) (Perfluorodecanoic acid; 20000 nM) | level (log10) ([3]; 6700 nM) | level (log10) ([3]; 20000 nM) | level (log10) (Perfluorobutanoic acid; 6700 nM) | level (log10) (Perfluorobutanoic acid; 20000 nM) | level (log10) (Perfluorobutanoic acid; 60000 nM) | level (log10) ([4]; 6700 nM) | level (log10) ([4]; 20000 nM) | level (log10) ([5]; 6700 nM) | level (log10) ([5]; 20000 nM) | level (log10) ([5]; 60000 nM) | level (log10) ([6]; 6700 nM) | level (log10) ([6]; 20000 nM) | level (log10) ([6]; 60000 nM) |
| --- | --- | --- | --- | --- | --- | --- | --- | --- | --- | --- | --- | --- | --- | --- | --- | --- | --- | --- | --- |
| KF3CT:CCL2/MCP-1 | -0.0125 ± 0.011 | -0.0285 ± 0.0092 | -0.004 ± 0.03 | 0.022 ± 0.04 | -0.127 ± 0.023 | -0.321 ± 0.032 | -0.0205 ± 0.0078 | -0.102 ± 0.019 | -0.028 ± 0.0099 | -0.0325 ± 0.0035 | 0.0205 ± 0.023 | -0.015 ± 0.038 | -0.016 ± 0.041 | -0.0185 ± 0.035 | -0.0515 ± 0.026 | 0.013 ± 0.048 | 0.0005 ± 0.015 | -0.034 ± 0.028 | -0.0465 ± 0.064 |
| CASM3C:Serum Amyloid A | -0.0145 ± 0.013 | 0.002 ± 0.047 | -0.0235 ± 0.012 | 0.0035 ± 0.047 | 0.035 ± 0.031 | 0.0345 ± 0.026 | 0.0875 ± 0.037 | 0.129 ± 0.042 | -0.021 | 0.0225 ± 0.016 | -0.009 ± 0.041 | -0.013 ± 0.0028 | -0.009 ± 0.0042 | 0.009 | -0.0065 ± 0.013 | -0.0005 ± 0.022 | 0.011 ± 0.023 | 0.003 ± 0.0014 | -0.0195 ± 0.026 |
| KF3CT:CD54/ICAM-1 | -0.001 ± 0.034 | -0.002 ± 0.0085 | 0.0055 ± 0.011 | -0.0105 ± 0.0064 | 0.0095 ± 0.013 | -0.003 ± 0.0028 | 0.0415 ± 0.0078 | 0.002 ± 0.0028 | -0.005 ± 0.0028 | 0.008 ± 0.0071 | 0.016 ± 0.016 | 0.011 ± 0.0057 | 0.0155 ± 0.0021 | 0.005 ± 0.0028 | 0.021 ± 0.024 | -0.01 ± 0.04 | 0.0015 ± 0.019 | -0.0045 ± 0.00071 | -0.0165 ± 0.0021 |
| MyoF:bFGF | -0.0075 ± 0.019 | -0.017 ± 0.0014 | 0.006 ± 0.0099 | -0.001 ± 0.0042 | 0.001 ± 0.0042 | 0.0055 ± 0.0035 | -0.01 ± 0.016 | -0.025 ± 0.0042 | 0.0025 ± 0.0078 | 0.0095 ± 0.0078 | 0.0155 ± 0.0035 | 0.0015 ± 0.005 | -0.0085 ± 0.0035 | -0.0125 ± 0.012 | -0.008 ± 0.013 | -0.0075 ± 0.019 | 0.0005 ± 0.0078 | 0.005 ± 0.011 | 0.046 ± 0.013 |
| KF3CT:uPA | 0.006 ± 0.013 | 0.001 ± 0.016 | -0.0045 ± 0.0021 | -0.021 ± 0.017 | -0.0095 ± 0.013 | 0 ± 0.023 | 0.022 ± 0.0028 | -0.0225 ± 0.0021 | -0.017 ± 0.017 | -0.018 ± 0.0099 | 0.005 ± 0.02 | -0.015 ± 0.023 | -0.0055 ± 0.015 | -0.007 ± 0.033 | 0.0005 ± 0.0092 | -0.008 ± 0.025 | -0.001 ± 0.034 | 0.0145 ± 0.022 | 0.0125 ± 0.00071 |
| lMphg:CD40 | 0.0035 ± 0.086 | 0.017 ± 0.048 | -0.0105 ± 0.028 | -0.021 ± 0.011 | -0.0025 ± 0.039 | -0.0385 ± 0.05 | -0.025 ± 0.017 | -0.0335 ± 0.018 | -0.049 ± 0.11 | -0.025 ± 0.038 | 0.023 ± 0.068 | -0.029 ± 0.0057 | -0.0435 ± 0.025 | -0.0295 ± 0.0035 | -0.0285 ± 0.005 | -0.039 ± 0.034 | -0.004 ± 0.0042 | -0.008 ± 0.013 | -0.058 ± 0.02 |
| BE3C:MMP-1 | -0.0055 ± 0.022 | -0.032 ± 0.031 | 0.0085 ± 0.076 | 0.0445 ± 0.1 | 0.211 ± 0.041 | -0.4875 ± 0.0035 | 0.255 ± 0.03 | 0.328 ± 0.0071 | -0.004 ± 0.034 | -0.0075 ± 0.013 | 0.021 ± 0.014 | -0.0245 ± 0.036 | -0.0195 ± 0.028 | 0.0035 ± 0.052 | 0.004 ± 0.045 | 0.03 ± 0.1 | 0.004 ± 0.023 | 0.074 ± 0.03 | 0.162 ± 0.0078 |
